In PubChem BioAssay (NCI):
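Grown in 96-well plates, cells were treated for 48 hours with each compound at five concentrations. Insufficient inhibition: endpoint recorded as highest concentration tested. At the GI50, growth is halved. TGI denotes the concentration required for complete inhibition of growth.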 *1 amine or outer side, *2 acyl side, *3 side chain or, on linkers, in order; H or OH if unused. Where a SMILES comes first, the peptide text is derived from it. [ ]: non-standard residue; d: D form. The star is where a group is joined. ξ: configuration not given here. X15 = CCN(CC)c1ccc2cc(N*)c(=O)oc2c1; dIva = CC[C@@](C)(N)C(=O)O; X14 = O=C(OCCN[*:1])[*:2]; Aib = CC(C)(N)C(=O)O; ξP = O=C(O)C1CCCN1; βAla = NCCC(=O)O

How the values were obtained:
Assay in all cases: NCI-60 cell line screen, 48 h
[1] = tested on: OVCAR-3 ovarian
[2] = tested on: SF-268 CNS
[3] = tested on: SK-MEL-5 melanoma
[4] = tested on: SK-OV-3 ovarian
[5] = tested on: SW-620 colon
[6] = tested on: TK-10 renal
[7] = tested on: HCC-2998 colon
[8] = tested on: IGROV1 ovarian
[9] = tested on: BT-549 breast
[10] = tested on: MDA-MB-435

SMILES	TGI [1]	TGI [2]	TGI [3]	TGI [4]	TGI [5]	TGI [6]	TGI [7]	TGI [8]	GI50 [9]	TGI [9]	GI50 [8]	GI50 [1]	GI50 [2]	GI50 [3]	GI50 [4]	GI50 [5]	GI50 [6]	GI50 [7]	GI50 [10]	TGI [10]
CCCC(Sc1ccccc1)P(=O)(c1ccccc1)c1ccccc1 (stereo unspecified)	> 100 µM	> 100 µM	87.2 µM	50.7 µM	> 100 µM	> 100 µM														
Cc1ccc(Sc2ccc(C)cc2[N+](=O)[O-])c([N+](=O)[O-])c1	> 100 µM	> 100 µM	> 100 µM	> 100 µM	> 100 µM	> 100 µM	> 100 µM	> 100 µM												
CCOc1ccccc1/C=N\N=C(\N)N/N=C/c1ccccc1OCC	4.48 µM	> 100 µM	> 100 µM	> 100 µM	> 100 µM	> 100 µM		> 100 µM	5.08 µM	> 100 µM	4.76 µM	1.69 µM	3.11 µM	1.63 µM	2.93 µM	2.46 µM	6.16 µM			
C1CCOC2(CCC3(CC2)OCCCCO3)OC1		> 100 µM	> 100 µM	> 100 µM	> 100 µM	> 100 µM	> 100 µM	> 100 µM												
COc1ccc(-c2nn(-c3cccc(Cl)c3)cc2-c2cc(-c3ccccc3)nc(N)n2)cc1	15.3 µM	18.9 µM	28.4 µM	29.2 µM		24.1 µM	4.53 µM	16.5 µM	4.31 µM	16.9 µM	4.2 µM	4.53 µM	3.76 µM	7.88 µM	13.5 µM		11.8 µM	2.25 µM		
C=CCC(OCCOCC)c1cc(OCCOCC)ccc1OC (stereo unspecified)	> 100 µM	> 100 µM	> 100 µM	> 100 µM	> 100 µM	> 100 µM	> 100 µM	> 100 µM												
O=C1NC2C=CN(Cc3ccccc3)C=C2C(=O)N2CCCC12 (stereo unspecified)	> 100 µM	> 100 µM	> 100 µM	> 100 µM	> 100 µM	> 100 µM	> 100 µM	> 100 µM												
C[C@@H](NC1CCC[C@H]1O)c1ccccc1 (stereo partly specified)	> 100 µM		> 100 µM	> 100 µM	> 100 µM	> 100 µM	> 100 µM	> 100 µM												
COc1cc(/C=C/C(=O)c2sc(NNC(C)=O)nc2C)ccc1O	> 100 µM	> 100 µM	> 100 µM	> 100 µM	> 100 µM	> 100 µM	> 100 µM	> 100 µM												
CCCCCCCOc1c(OC)cc(C2CC(=O)Nc3c2c(C)nn3-c2nc3ccccc3[nH]2)cc1OC (stereo unspecified)		6.68 µM	3.78 µM	7.55 µM	5.18 µM	> 100 µM	> 100 µM	10.1 µM	3.4 µM	47.5 µM	2.74 µM		2.12 µM	1.93 µM	2.77 µM	2.11 µM	3.12 µM	74.1 µM	2.42 µM	6.08 µM
N.N.NCCCCCCN.O=C([O-])CC(=O)[O-].O=C([O-])CC(=O)[O-].[Pt+4].[Pt+4]	> 100 µM	> 100 µM	> 100 µM	> 100 µM	> 58.7 µM	> 100 µM	> 100 µM	> 100 µM			> 100 µM	> 89.7 µM	28.9 µM	> 100 µM	> 100 µM	> 38 µM	> 100 µM	> 100 µM		
COC(=O)C1=C(C(=O)OC)SC(=C(N=Nc2ccccc2)c2ccccc2)S1	> 100 µM	> 100 µM	> 100 µM	> 100 µM	> 100 µM	> 100 µM	> 100 µM	> 100 µM												
O=C1CCC2(c3ccccc3)Nc3ncccc3N12 (stereo unspecified)	> 100 µM	> 100 µM	> 100 µM	> 100 µM	> 100 µM	> 100 µM	> 100 µM	> 100 µM												
CCN(CC)c1ccc2cc(NC(=O)OCCNC(=O)CCNC(=O)[C@H](CC(C)C)NC(=O)C(C)(C)NC(=O)C(C)(C)NC(=O)[C@H](CC(C)C)NC(=O)CCNC(=O)C(C)(C)NC(=O)[C@H](CC(C)C)NC(=O)CCNC(=O)[C@@](C)(CC)NC(=O)[C@H](C)NC(=O)CCNC(=O)C(C)(C)NC(=O)[C@H](C)NC(=O)[C@@H]3CCCN3C(=O)[C@@](C)(CC)NC(=O)[C@H](Cc3ccccc3)NC(=O)C3CCCN3C(=O)C(C)(C)NC(=O)C3CCCN3C(=O)C(C)(C)NC(C)=O)c(=O)oc2c1 (stereo partly specified) (Ac-[Aib][ξP][Aib][ξP]F[dIva]PA[Aib][βAla]A[dIva][βAla]L[Aib][βAla]L[Aib][Aib]L[βAla][X14]-X15)	0.0139 µM	0.0187 µM	0.00666 µM	0.00775 µM	0.102 µM	0.079 µM	0.127 µM		0.00367 µM	0.022 µM		0.00338 µM	0.00435 µM	0.00256 µM	0.0028 µM	0.0048 µM	0.0142 µM	0.00477 µM	0.00353 µM	0.0252 µM
CCC(/C=C/c1ccccc1)=N\Nc1ccc(Cl)c(Cl)c1	> 100 µM	> 100 µM	30 µM	> 100 µM	> 100 µM	> 100 µM	65 µM	37.5 µM												> 100 µM
C=CC1C(OC2OC(CO)C(O)C(O)C2O)OC=C(C(=O)OC)C1CC=O (stereo unspecified)	> 100 µM	> 100 µM	> 100 µM	> 100 µM	> 100 µM			> 100 µM												
CCOC(=O)c1nc(-c2ccccc2)oc1OCC	> 100 µM	> 100 µM	> 100 µM	> 100 µM	> 100 µM	> 100 µM	> 100 µM	> 100 µM												
C/C=C/C=C/CCCCCCCCCCCCCC1(OC)C=CC(CC(=O)OC)OO1 (stereo unspecified)	20.6 µM	34 µM	22.6 µM	33.9 µM	4.34 µM	4.81 µM	9.99 µM	1.03 µM			0.509 µM	6.7 µM				1.99 µM	2.26 µM	3.5 µM		
CCN1C(=O)N(CC)C2C1NN=c1s/c(=C\c3cc4ccccc4[nH]3)c(=O)n12 (stereo unspecified)		20.4 µM	0.063 µM	17.3 µM	> 100 µM	32.3 µM	> 100 µM	12.2 µM	0.0178 µM	16 µM	0.0139 µM		< 0.0229 µM	0.0202 µM	0.0246 µM	0.0277 µM	2.11 µM	0.0382 µM		

SMILES	TGI [1]	TGI [2]	TGI [3]	TGI [4]	TGI [5]	TGI [6]	TGI [7]	TGI [8]	GI50 [9]	TGI [9]	GI50 [8]	GI50 [1]	GI50 [2]	GI50 [3]	GI50 [4]	GI50 [5]	GI50 [6]	GI50 [7]	GI50 [10]	TGI [10]
CCOC(=O)C1=C(Nc2cccc3ccccc23)OC/C1=N\NC(=O)c1ccccc1O	60 µM	> 100 µM	37.4 µM	> 100 µM	> 100 µM	> 100 µM	> 100 µM	29.8 µM												
Cc1c(Cl)cccc1NC1=C(Cl)C(=O)N(Cc2ccccc2)C1=O	15.2 µM	27 µM	23.9 µM	30.2 µM		15.3 µM	13.6 µM	56.5 µM			19.7 µM	1.47 µM	6.88 µM	11.7 µM	14.7 µM		2.87 µM	3.12 µM	8.55 µM	20.8 µM
O=C(CCc1cc(-c2ccccc2)nc(=S)[nH]1)Nc1ccccc1[N+](=O)[O-]	> 100 µM	> 100 µM	> 100 µM	> 100 µM	> 100 µM	> 100 µM	> 100 µM	> 100 µM												
S=C(Nc1cc(Cl)c(Cl)cc1Cl)SCc1ccccc1	49.3 µM	> 100 µM	37.7 µM	> 100 µM	> 100 µM	53.8 µM		> 100 µM		65.8 µM										38.6 µM
CCC1CCc2c(OC)ccc(OCC(=O)O)c2C1=O (stereo unspecified)	> 100 µM	> 100 µM	> 100 µM	> 100 µM	> 100 µM	> 100 µM	> 100 µM	> 100 µM												
COc1cc(C)c(O)c(C(=O)O)c1	> 100 µM	> 100 µM	> 100 µM	> 100 µM	> 100 µM	> 100 µM	> 100 µM	> 100 µM												
Cc1[nH]c2ccccc2c1CCNCc1ccc(/C=C/C(=O)NO)cc1		0.0605 µM	0.0275 µM	0.0412 µM	0.0219 µM	0.0453 µM	0.0353 µM	0.0721 µM	0.213 µM	12.3 µM	0.0168 µM		0.0157 µM	< 0.0113 µM	0.0134 µM	< 0.01 µM	< 0.0111 µM	0.0121 µM	< 0.01 µM	0.0502 µM
CC1CCC(C(C)C)C(O[C@@H]2OC(=O)C[C@@H]2Sc2ccccc2)C1 (stereo partly specified)	28.8 µM	> 100 µM	30.3 µM	91.7 µM	39.2 µM	> 100 µM	55.9 µM	> 100 µM												
O=C1c2ccccc2CC1C1(O)C(=O)Nc2ccccc21 (stereo unspecified)	> 100 µM	> 100 µM	> 100 µM	> 100 µM	> 100 µM	> 100 µM		> 100 µM												
CC(=O)Nc1ccc(/C=C/C(=O)c2sc(-c3nc(C)c(C(=O)/C=C/c4ccc(NC(C)=O)cc4)s3)nc2C)cc1	> 100 µM			> 100 µM	> 100 µM	> 100 µM	> 100 µM	> 100 µM												
Nc1cc(N)c2nc(-c3ccccc3)c(NCc3ccc(F)cc3)nc2c1	6.42 µM	7.54 µM	3.61 µM	26.4 µM	9.52 µM	19.8 µM		> 100 µM	1.69 µM	3.26 µM	3.11 µM	2.39 µM	2.81 µM	1.88 µM	12.9 µM	2.21 µM	5.83 µM		2.01 µM	3.74 µM
CC(=O)NC1CC2Oc3ccc(C)cc3C(C)(O2)C1O (stereo unspecified)	> 100 µM			> 100 µM	> 100 µM	> 100 µM		> 100 µM												
CC(=O)O[C@H]1CC[C@@]2(C)[C@@H](CC[C@@H]3[C@@H]2CC[C@]2(C)C=C(C=O)C[C@@H]32)C1	9.04 µM	11.2 µM	14.4 µM	21.7 µM	10.7 µM			14.6 µM	12.1 µM	32.3 µM	3.73 µM	3.1 µM	3.3 µM	3.56 µM	9.67 µM	3.42 µM			5.01 µM	19.2 µM
CS/C(=N\c1nccs1)NC(=O)c1cccc(Cl)c1	> 100 µM	> 100 µM	> 100 µM	> 100 µM	> 100 µM	> 100 µM	> 100 µM	> 100 µM												
COC(=O)c1cc(-c2cccn2C)c2c(c1C(=O)OC)c1ccccc1n2C	> 100 µM		> 100 µM	> 100 µM	> 100 µM	> 100 µM	> 100 µM	> 100 µM												
COC(=O)C1=C(O)c2cc3c(cc2[C@H](c2cc(OC)c(OC)c(OC)c2)C1C(=O)OC)OCO3 (stereo partly specified)	92.4 µM	> 100 µM	> 100 µM	> 100 µM	> 100 µM	89.5 µM	> 100 µM	> 100 µM												
CCCOc1nc(SCCC)nc2c1cnn2-c1ccccc1	> 100 µM	> 100 µM	> 100 µM	> 100 µM	> 100 µM		> 100 µM	> 100 µM			> 100 µM	> 100 µM	> 100 µM	> 100 µM	> 100 µM	> 100 µM		> 100 µM	53.1 µM	> 100 µM
COc1ccc2c(c1)C(C)Cc1c(Cl)nc(C)nc1N2C (stereo unspecified)	4.17 µM	18.6 µM	11.2 µM	26.7 µM	24.4 µM	38.8 µM	8.93 µM	> 100 µM	2.22 µM	12.3 µM	4.41 µM	1.4 µM	2.6 µM	2.55 µM	2.79 µM	2.45 µM	4.55 µM	2.29 µM		
